Target: T1, 3-dehydroquinate synthase (Escherichia coli (strain K12), UniProt P07639)
T1 sequence (P07639 whole entry): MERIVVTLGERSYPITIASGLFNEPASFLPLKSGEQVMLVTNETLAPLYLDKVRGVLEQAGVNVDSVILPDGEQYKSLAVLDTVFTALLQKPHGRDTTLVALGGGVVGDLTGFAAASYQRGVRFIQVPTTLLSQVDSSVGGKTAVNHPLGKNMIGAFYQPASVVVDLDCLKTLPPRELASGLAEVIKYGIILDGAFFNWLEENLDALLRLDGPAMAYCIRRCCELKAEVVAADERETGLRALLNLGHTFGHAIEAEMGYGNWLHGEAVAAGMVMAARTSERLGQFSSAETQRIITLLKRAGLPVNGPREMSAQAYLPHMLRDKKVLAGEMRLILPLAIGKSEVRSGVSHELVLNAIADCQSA
Experiment: Enzyme Inhibition
Source text: Enzyme inhibition using dehydroquinate synthase.

Ki [µM] | SMILES
35 | O=C(O)C1CC(O)C(O)C(CP(=O)(O)O)O1 (configuration not stated) [4,5-dihydroxy-6-(phosphonatomethyl)oxane-2-carboxylate, 3]
0.12 | O=C(O)C1(O)CC(O)C(O)C(CP(=O)(O)O)O1 (configuration not stated) [2,4,5-trihydroxy-6-(phosphonatomethyl)oxane-2-carboxylate, 4]

— BindingDB's records for doi:10.1021/bi00445a011 (Harvard University, 1989)
